Results reported in patent US4111955A, “N-Trihalomethanesulfenyl carbamoyloximino di-sulfur heterocyclic compounds” (priority 1976, dated 1978).
In brackets after ≈: the same amount, converted by molar mass.

Legend:
[1] = test system: southern armyworm (Prodenia eridania, (Cram.)); assay: Southern Armyworm Leaf Spray Test; format: in vivo; design: key to pesticidal activity rating, Armyworm: A: excellent control; B: partial control; C: no control
Experimental: Larvae of the southern armyworm (Prodenia eridania, (Cram.)), reared on Tendergreen bean plants at a temperature of 80°±5° F. and a relative humidity of 50±5 percent, constituted the test insects.
The test compounds were formulated by diluting the stock suspension with water to give a suspension containing 500 parts of test compound per million parts of final formulation. Potted Tendergreen bean plants of standard height and age were placed on a revolving turntable and sprayed with 100-110 milliliters of test compound formulation by use of a DeVilbiss spray gun set at 10 psig air pressure. This application, which lasted 25 seconds, was sufficient to wet plants to run-off. As a control, 100-110 milliliters of a water-acetone-emulsifier solution containing no test compound were also sprayed on infested plants. When dry, the paired leaves were separated and each one was placed in a 9 centimeter Petri dish lined with moistened filter paper. Five randomly selected larvae were introduced into each dish and the dishes were closed. The closed dishes were labeled and held at 80°-85° F. for 3 days. Although the larvae could easily consume the whole leaf within 24 hours, no more food was added. Larvae which were unable to move the length of the body, even upon stimulation by prodding, were considered dead. Percent mortality was recorded for various concentration levels.
(§1) In these tests the pesticidal activity of the compounds against aphid, mite, Southern Armyworm, Bean Beetle and House fly was rated as follows:
(§2) The LD50 values shown in the above Table II were determined by testing the compositions over an appropriate concentration range obtained by serial dilution of the stock suspension with water. The percent kill was plotted on log-probit graph paper versus parts per million concentration, and the LD50 read from an eye-fitted line drawn through the resultant points.

[2] = test system: bean aphid (Aphis fabae Scop.); assay: Bean Aphid Foliage Spray Test; format: in vivo; design: key to pesticidal activity rating, Aphid: A: excellent control; B: partial control; C: no control
Experimental: Adults and nymphal stages of the bean aphid (Aphis fabae Scop.) reared on potted dwarf nasturtium plants at 65°-70° F. and 50-70 percent relative humidity, constituted the test insects. For testing purposes, the number of aphids per pot was standardized to 100-150 by trimming plants containing excess aphids.
The test compounds were formulated by diluting the stock suspension with water to give a suspension containing 500 parts of test compound per million parts of final formulation.
The potted plants (one pot per compound tested) infested with 100-150 aphids, were placed on a revolving turntable and sprayed with 100-110 milliliters of test compound formulation by use of a DeVilbiss spray gun set at 40 psig. air pressure. This application, which lasted 25 seconds, was sufficient to wet the plants to run-off. As a control, 100-110 milliliters of a water-acetone-emulsifier solution containing no test compound were also sprayed on infested plants. After spraying, the pots were placed on their sides on a sheet of white standard mimeograph paper which had been previously ruled to facilitate counting. Temperature and humidity in the test room during the 24 hour holding period were 65°-70° F. and 50-70 percent, respectively. Aphids which fell onto the paper and were unable to remain standing after being uprighted were considered dead. Aphids remaining on the plants were observed closely for movement and those which were unable to move the length of the body upon stimulation by prodding were considered dead. Percent mortality was recorded for various concentration levels.
as §1, §2

[3] = test system: two-spotted mite (Tetranychus urticae Koch); assay: Mite Foliage Spray Test; format: in vivo; design: key to pesticidal activity rating, Mite: A: excellent control; B: partial control; C: no control
Experimental: (§3) Adults and nymphal stages of the two-spotted mite (Tetranychus urticae Koch), reared on Tendergreen bean plants at 80±5 percent relative humidity, were the test organisms. Infested leaves from a stock culture were placed on the primary leaves of two bean plants 6 to 8 inches in height, growing in a 21/2 inch clay pot. 150-200 Mites, a sufficient number for testing, transferred from the excised leaves to the fresh plants in a period of 24 hours. Following the 24 hour transfer period, the excised leaves were removed from the infested plants. The test compounds were formulated by diluting the stock suspension with water to give a suspension containing 500 parts of test compound per million parts of final formulation. The potted plants (one pot per compound) were placed on a revolving turntable and sprayed with 100-110 milliliters of test compound formulation by use of a DeVilbiss spray gun set at 40 psig. air pressure. This application, which lasted 25 seconds, was sufficient to wet the plants to run-off. As a control, 100-110 milliliters of a water solution containing acetone and emulsifier in the same concentrations as the test compound formulation, but containing no test compound, were also sprayed on infested plants. The sprayed plants were held at 80±5 percent relative humidity for 6 days, after which a mortality count of motile forms was made. Microscopic examination for motile forms was made on the leaves of the test plants. Any individual which was capable of locomotion upon prodding was considered living.
as §1, §2

[4] = test system: rat; assay: Peroral toxicity to mammals (rat); format: in vivo; conditions: fraction of the toxicity of the methylcarbamoyl compound; rat P.O. LD50
Experimental: (§4) Certain of these compositions were also evaluated to determine their peroral toxicity to mammals. The animal selected for this experiment was the rat. The test results obtained are expressed in terms of the number of milligrams of composition per kilogram of weight of the animal required to achieve a mortality rate of 50 percent (LD50).

[5] = Peroral toxicity to mammals (rat); format: in vivo; conditions: in vivo, po; rat, peroral, Table II; read-out: Rat P.O. LD50
Experimental: as §4

[6] = test system: mites; assay: Systemic miticidal activity (soil drench of infested bean plants); format: in vivo, Tetranychus urticae Koch; conditions: Table II
Experimental: as §3, §2
Systemic treatments were made by drenching 20 milliliters of the test compound formulation into the soil around the roots of bean plants growing in 21/2 inch clay pots. […]

[7] = test system: aphid, mite, Southern Armyworm, Bean Beetle and House fly; assay: Overall pesticidal activity / insect toxicity compared with methylcarbamoyl derivatives; format: in vivo; conditions: all cases except the bean-beetle; Table II
Source text: as §1
In the above Table, A indicates excellent control, B indicates partial control and C indicates no control. For comparison purposes, there is provided immediately below the data presented for the trihalomethanesulfenyl derivative the activity measurements achieved from the corresponding methyl-carbamoyl derivative adjacent to the chemical designation --NHCH3.
as §2

## CN(SC(Cl)(Cl)Cl)C(=O)ON=C1CSCCS1 [2-[(N-METHYL-N-TRICHLOROMETHANESULFENYL)-CARBAMOYLOXIMINO]-1,4-DITHIANE]
[1]; 500 parts per million, 3 days
  pesticidal activity rating, Armyworm: A
[1]; Spodoptera eridania, 72 h, Table II, read-out: Insect Toxicity, LD50, Armyworm
  LC50: 52 µg/mL (≈ 146 µM)
[2]; 500 parts per million, 24 hour
  pesticidal activity rating, Aphid: A
[2]; Aphis fabae, foliar, 24 h, Table II, read-out: Insect Toxicity, LD50, Aphid
  LC50: 13 µg/mL (≈ 36.5 µM)
[3]; 500 parts per million, 6 days
  pesticidal activity rating, Mite: A
[3]; Tetranychus urticae, foliar, Table II, read-out: Insect Toxicity, LD50, Mite
  LC50: 7 µg/mL (≈ 19.7 µM)
[4]
  mammalian toxicity relative to the methylcarbamoyl compound: 1/10
[5]
  LD50: 149 mg/kg
[6]
  systemic activity relative to the methylcarbamoyl composition: higher degree of systemic activity
[6]; Tetranychus urticae, systemic, soil drench, value in parentheses, read-out: Insect Toxicity, LD50, Mite, systemic activity
  LC50: 3 µg/mL (≈ 8.43 µM)
[7]
  insect toxicity relative to the methylcarbamoyl composition: essentially equivalent
